Measurements reported in article PMC12362783 (Advanced Science, 2025).

Experiments:
[1] = test system: MDA‐MB‐436; assay: Cell growth inhibition, CellTiter‐Glo (CTG); type: cell-based; conditions: Homo sapiens; for inhibition at 5 µM: MDA-MB-436, read-out: MDA‐MB‐436 inhibitory rate at certain concentration; for IC50: MDA-MB-436, 120 h, CTG, 5 days, n = 3
Procedure: (§1) All cells were grown in a humidified incubator at 37 °C and 5% CO2.
Growth viability was determined by the CellTiter‐Glo luminescent viability assay (Promega) 5 days after drug treatment. Cell viability was measured immediately after dosing (Day 0) and after 5 days of incubation using CellTiter‐Glo (CTG, Promega, G7573). Relative viability was calculated by normalizing the raw luminescence counts of the treated groups to those of the DMSO control groups. IC₅₀ values were calculated using sigmoidal dose‐response curve fitting with GraphPad Prism 9.0 software.

[2] = test system: MDA‐MB‐231; assay: Cell growth inhibition, CellTiter‐Glo (CTG); type: cell-based; conditions: Homo sapiens, MDA-MB-231, 120 h, read-out: IC50 MDA‐MB‐231; CTG, 5 days, n = 3
Procedure: as §1
(§2) […] […] Relative viability was calculated by normalizing the raw luminescence counts of the treated groups to those of the DMSO control groups. IC₅₀ values were calculated using sigmoidal dose‐response curve fitting with GraphPad Prism 9.0 software.

[3] = test system: MDA‐MB‐468; assay: Cell growth inhibition, CellTiter‐Glo (CTG); type: cell-based; conditions: Homo sapiens, MDA-MB-468, 120 h; CTG, 5 days, n = 3
Procedure: as §1, §2

[4] = biological target: PARP1 (Homo sapiens, UniProt P09874); assay: PARP enzymatic inhibition ELISA (PARP1); type: biochemical; conditions: n = 3, mean ± SD
PARP1, sequence (P09874 whole entry): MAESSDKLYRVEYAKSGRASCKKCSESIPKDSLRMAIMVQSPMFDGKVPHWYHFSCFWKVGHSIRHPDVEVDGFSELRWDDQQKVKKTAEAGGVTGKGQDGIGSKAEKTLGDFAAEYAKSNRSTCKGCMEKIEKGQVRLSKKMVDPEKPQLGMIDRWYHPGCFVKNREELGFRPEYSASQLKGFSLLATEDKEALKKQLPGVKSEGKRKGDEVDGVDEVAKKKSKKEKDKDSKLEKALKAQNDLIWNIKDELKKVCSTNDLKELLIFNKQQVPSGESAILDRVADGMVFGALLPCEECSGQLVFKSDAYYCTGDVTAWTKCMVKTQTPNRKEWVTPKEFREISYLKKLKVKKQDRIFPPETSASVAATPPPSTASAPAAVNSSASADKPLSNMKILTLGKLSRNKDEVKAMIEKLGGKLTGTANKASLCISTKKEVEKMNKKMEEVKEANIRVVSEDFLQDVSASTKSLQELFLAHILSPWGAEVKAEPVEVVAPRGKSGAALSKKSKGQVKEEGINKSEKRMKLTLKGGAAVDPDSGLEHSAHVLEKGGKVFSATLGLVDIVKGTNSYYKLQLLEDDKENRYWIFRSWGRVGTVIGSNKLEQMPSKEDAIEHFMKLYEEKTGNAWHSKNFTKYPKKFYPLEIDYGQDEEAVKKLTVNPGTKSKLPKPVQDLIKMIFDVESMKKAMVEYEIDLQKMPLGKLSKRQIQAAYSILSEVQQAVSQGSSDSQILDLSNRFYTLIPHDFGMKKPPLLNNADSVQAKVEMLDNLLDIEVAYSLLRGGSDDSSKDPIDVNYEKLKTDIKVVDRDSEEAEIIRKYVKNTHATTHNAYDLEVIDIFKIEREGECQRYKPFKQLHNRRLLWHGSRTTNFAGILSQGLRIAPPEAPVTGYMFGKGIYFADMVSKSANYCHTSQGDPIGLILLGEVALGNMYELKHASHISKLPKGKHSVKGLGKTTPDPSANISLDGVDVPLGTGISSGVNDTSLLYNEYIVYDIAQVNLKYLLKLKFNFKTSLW
Procedure: The PARP activity assay was performed by ChemPartner (Shanghai, China). Each well was precoated with histone (final conc.: 100 ng mL^−1) diluted in PBS buffer (contains 10 mmol L^−1 NaH2PO4 and 150 mmol L^−1 NaCl, pH 7.4) by incubation at 4 °C overnight. […] The reaction was initiated by the addition of 10 µL of PARP (final conc.: 0.007 nM/well) at room temperature for 60 min. Add 20 µL of anti‐Poly/Mono‐ADP Ribose Rabbit mAb. Incubate for 1.5 h at room temperature and wash the plate three times using PBST buffer. […] Incubate for 1 h at room temperature and wash the plate three times using PBST buffer. Add 25 µL Femto‐ECL Substrate A and Femto‐ECL Substrate B (1:1) mix. Immediately read chemiluminescence on Envision (Revvity, USA).

[5] = biological target: T1, ATR (Homo sapiens, UniProt Q13535); assay: ATR kinase inhibition, Mobility Shift Assay; type: biochemical; conditions: n = 3, mean ± SD
T1 construct: purchased Eurofins 14-953
T1 sequence (Q13535 whole entry): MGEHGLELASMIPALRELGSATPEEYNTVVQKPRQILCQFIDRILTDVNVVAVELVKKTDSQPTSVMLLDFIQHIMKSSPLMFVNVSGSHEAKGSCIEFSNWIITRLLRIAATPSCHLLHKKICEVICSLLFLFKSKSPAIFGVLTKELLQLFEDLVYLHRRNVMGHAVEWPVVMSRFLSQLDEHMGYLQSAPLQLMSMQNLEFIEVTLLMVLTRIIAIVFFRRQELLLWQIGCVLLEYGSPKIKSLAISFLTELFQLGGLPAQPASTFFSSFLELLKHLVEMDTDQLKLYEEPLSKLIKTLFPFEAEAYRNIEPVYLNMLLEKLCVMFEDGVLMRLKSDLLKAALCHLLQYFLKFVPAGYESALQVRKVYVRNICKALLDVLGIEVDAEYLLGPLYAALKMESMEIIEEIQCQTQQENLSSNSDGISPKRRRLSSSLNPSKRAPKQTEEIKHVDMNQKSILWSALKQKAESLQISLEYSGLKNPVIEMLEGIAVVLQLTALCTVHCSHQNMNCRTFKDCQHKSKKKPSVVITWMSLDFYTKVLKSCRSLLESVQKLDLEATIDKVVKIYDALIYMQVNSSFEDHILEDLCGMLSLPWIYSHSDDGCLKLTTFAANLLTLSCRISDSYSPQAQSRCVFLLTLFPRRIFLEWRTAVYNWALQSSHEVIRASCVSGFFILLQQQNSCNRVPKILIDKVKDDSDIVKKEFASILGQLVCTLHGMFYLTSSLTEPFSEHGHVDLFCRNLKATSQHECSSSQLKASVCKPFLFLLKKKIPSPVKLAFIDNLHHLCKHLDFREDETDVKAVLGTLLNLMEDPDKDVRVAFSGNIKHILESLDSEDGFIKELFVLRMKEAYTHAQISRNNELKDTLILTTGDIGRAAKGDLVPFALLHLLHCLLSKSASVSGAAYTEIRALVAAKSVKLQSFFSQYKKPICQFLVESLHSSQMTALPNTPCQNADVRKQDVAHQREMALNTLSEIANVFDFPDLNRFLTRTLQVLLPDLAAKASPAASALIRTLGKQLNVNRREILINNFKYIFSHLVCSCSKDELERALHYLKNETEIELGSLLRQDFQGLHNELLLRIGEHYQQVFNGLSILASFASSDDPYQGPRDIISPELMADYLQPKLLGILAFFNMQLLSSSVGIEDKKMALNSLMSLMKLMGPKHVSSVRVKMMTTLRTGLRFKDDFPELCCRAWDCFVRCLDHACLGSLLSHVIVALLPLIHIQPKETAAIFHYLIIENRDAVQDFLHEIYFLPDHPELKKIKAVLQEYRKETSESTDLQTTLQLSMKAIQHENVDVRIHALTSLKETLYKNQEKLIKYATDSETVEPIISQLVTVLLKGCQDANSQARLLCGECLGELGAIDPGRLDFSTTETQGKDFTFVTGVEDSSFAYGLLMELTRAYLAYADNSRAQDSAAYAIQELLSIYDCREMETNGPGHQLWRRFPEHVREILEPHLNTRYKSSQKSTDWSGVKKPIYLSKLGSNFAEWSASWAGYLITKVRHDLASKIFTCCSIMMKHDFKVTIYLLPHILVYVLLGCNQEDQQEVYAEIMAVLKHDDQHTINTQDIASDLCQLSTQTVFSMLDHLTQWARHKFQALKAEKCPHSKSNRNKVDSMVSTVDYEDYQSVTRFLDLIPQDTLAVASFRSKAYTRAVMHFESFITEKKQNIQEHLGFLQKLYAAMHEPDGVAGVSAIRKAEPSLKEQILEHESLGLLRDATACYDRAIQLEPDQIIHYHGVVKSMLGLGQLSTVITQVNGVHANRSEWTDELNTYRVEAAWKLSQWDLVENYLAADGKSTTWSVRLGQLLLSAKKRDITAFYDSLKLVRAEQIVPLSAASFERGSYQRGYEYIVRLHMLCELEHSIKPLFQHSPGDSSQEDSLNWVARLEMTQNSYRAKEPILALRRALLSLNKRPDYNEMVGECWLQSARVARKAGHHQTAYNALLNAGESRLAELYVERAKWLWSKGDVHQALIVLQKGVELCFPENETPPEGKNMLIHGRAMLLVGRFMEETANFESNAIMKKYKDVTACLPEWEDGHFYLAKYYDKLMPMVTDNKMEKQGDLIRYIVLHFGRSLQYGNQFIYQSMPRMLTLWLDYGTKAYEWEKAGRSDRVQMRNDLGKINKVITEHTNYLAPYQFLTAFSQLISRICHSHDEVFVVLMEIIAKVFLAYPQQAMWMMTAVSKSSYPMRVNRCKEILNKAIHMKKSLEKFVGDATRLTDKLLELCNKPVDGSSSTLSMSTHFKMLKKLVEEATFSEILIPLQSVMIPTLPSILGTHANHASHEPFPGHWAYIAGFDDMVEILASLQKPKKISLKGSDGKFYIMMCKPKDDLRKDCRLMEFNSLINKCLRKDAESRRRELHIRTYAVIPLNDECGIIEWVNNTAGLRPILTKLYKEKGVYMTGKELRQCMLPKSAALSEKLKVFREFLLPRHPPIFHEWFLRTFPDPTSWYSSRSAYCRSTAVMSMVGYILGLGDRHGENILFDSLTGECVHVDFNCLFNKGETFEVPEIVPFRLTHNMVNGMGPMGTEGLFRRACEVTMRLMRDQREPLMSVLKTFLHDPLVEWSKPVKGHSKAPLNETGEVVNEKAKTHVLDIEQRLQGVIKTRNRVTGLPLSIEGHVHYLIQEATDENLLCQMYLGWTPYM
T1 sequence (Q8WXE1 whole entry partner): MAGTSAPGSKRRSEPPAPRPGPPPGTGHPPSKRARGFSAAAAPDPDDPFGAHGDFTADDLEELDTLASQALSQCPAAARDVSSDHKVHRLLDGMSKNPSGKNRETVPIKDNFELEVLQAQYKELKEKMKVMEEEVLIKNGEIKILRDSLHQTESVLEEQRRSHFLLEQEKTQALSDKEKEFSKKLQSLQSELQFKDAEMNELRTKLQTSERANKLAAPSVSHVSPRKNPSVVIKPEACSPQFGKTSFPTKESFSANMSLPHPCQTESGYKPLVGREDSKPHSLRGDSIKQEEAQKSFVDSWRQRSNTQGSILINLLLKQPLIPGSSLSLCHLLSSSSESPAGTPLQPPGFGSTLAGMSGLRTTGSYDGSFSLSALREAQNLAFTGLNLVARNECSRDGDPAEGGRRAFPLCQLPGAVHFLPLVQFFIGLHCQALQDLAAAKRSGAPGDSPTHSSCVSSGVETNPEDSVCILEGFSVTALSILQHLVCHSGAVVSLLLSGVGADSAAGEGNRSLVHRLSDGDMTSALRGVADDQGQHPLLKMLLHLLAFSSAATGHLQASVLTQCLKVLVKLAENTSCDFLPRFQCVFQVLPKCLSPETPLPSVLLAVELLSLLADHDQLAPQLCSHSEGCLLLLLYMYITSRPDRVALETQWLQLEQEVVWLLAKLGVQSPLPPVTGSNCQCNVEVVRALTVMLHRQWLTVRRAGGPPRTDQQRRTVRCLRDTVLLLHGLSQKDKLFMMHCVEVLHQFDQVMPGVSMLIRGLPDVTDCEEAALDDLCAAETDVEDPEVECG
Procedure: The in vitro ATR kinase inhibitory activities were determined by ChemPartner Co., Ltd. (Shanghai, China) using the Mobility Shift Assay. The tested compound was dissolved with DMSO and diluted to 1000/3 × of the final desired highest inhibitor concentration in the reaction. […] The assay wells were incubated at 28 °C for 4 h.

| IC50 [4] | IC50 [5] | SMILES | inhibition at 5 µM [1] | IC50 [2] | IC50 [3] | IC50 [1] |
| --- | --- | --- | --- | --- | --- | --- |
| 1.08 ± 0.74 nM | 143 ± 11 nM | C[C@@H]1COCCN1c1cc(C2(NC(=O)C3CCN(C(=O)c4cc(Cc5n[nH]c(=O)c6ccccc56)ccc4F)CC3)CC2)nc(-c2ccnc3[nH]ccc23)n1 [Compound A5, (R)‐1‐(2‐fluoro‐5‐((4‐oxo‐3,4‐dihydrophthalazin‐1‐yl)methyl)benzoyl)‐N‐(1‐(6‐(3‐methylmorpholino)‐2‐(1H‐pyrrolo[2,3‐b]pyridin‐4‐yl)pyrimidin‐4‐yl)cyclopropyll)piperidine‐4‐carboxamide] | – | 3630 ± 1410 nM | 570 ± 80 nM | 570 ± 40 nM |
| 0.98 ± 0.88 nM | > 500 nM | C[C@@H]1COCCN1c1cc(C2(NC(=O)N3CCN(C(=O)c4cc(Cc5n[nH]c(=O)c6ccccc56)ccc4F)CC3)CC2)nc(-c2ccnc3[nH]ccc23)n1 [Compound A6, (R)‐4‐(2‐fluoro‐5‐((4‐oxo‐3,4‐dihydrophthalazin‐1‐yl)methyl)benzoyl)‐N‐(1‐(6‐(3‐methylmorpholino)‐2‐(1H‐pyrrolo[2,3‐b]pyridin‐4‐yl)pyrimidin‐4‐yl)cyclopropyll)piperazine‐1‐carboxamide] | – | 4160 ± 1090 nM | 1150 ± 10 nM | 590 ± 10 nM |
| 16 ± 2.4 nM | 168 ± 7.8 nM | C[C@@H]1COCCN1c1cc(CNC(=O)CNC(=O)c2cc(Cc3n[nH]c(=O)c4ccccc34)ccc2F)nc(-c2ccnc3[nH]ccc23)n1 [Compound B2, (R)‐2‐fluoro‐N‐(2‐(((6‐(3‐methylmorpholino)‐2‐(1H‐pyrrolo[2,3‐b]pyridin‐4‐yl)pyrimidin‐4‐yl)methyl)amino)‐2‐oxoethyl)‐5‐((4‐oxo‐3,4‐dihydrophthalazin‐1‐yl)methyl)benzamide] | 40.3% | 10580 ± 10 nM | 8410 ± 610 nM | – |
| 6.2 ± 0.9 nM | 111 ± 8.1 nM | C[C@@H]1COCCN1c1cc(CNC(=O)CCCNC(=O)c2cc(Cc3n[nH]c(=O)c4ccccc34)ccc2F)nc(-c2ccnc3[nH]ccc23)n1 [Compound B4, (R)‐2‐fluoro‐N‐(4‐(((6‐(3‐methylmorpholino)‐2‐(1H‐pyrrolo[2,3‐b]pyridin‐4‐yl)pyrimidin‐4‐yl)methyl)amino)‐4‐oxobutyl)‐5‐((4‐oxo‐3,4‐dihydrophthalazin‐1‐yl)methyl)benzamide] | 47% | 14300 ± 3910 nM | 6830 ± 100 nM | – |
| 0.61 ± 0.15 nM | 19 ± 1.2 nM | C[C@@H]1COCCN1c1cc(CNC(=O)c2ccc(C(=O)N3CCN(C(=O)c4cc(Cc5n[nH]c(=O)c6ccccc56)ccc4F)CC3)nc2)nc(-c2ccnc3[nH]ccc23)n1 [Compound B10, (R)‐6‐(4‐(2‐fluoro‐5‐((4‐oxo‐3,4‐dihydrophthalazin‐1‐yl)methyl)benzoyl)piperazine‐1‐carbonyl)‐N‐((6‐(3‐methylmorpholino)‐2‐(1H‐pyrrolo[2,3‐b]pyridin‐4‐yl)pyrimidin‐4‐yl)methyl) nicotinamide] | – | > 50000 nM | 1700 ± 350 nM | – |
| 1.3 ± 0.6 nM | 22 ± 1.7 nM | C[C@@H]1COCCN1c1cc(CNC(=O)c2ccc(N3CCN(C(=O)c4cc(Cc5n[nH]c(=O)c6ccccc56)ccc4F)CC3)cc2)nc(-c2ccnc3[nH]ccc23)n1 [Compound B13, (R)‐4‐(4‐(2‐fluoro‐5‐((4‐oxo‐3,4‐dihydrophthalazin‐1‐yl)methyl)benzoyl)piperazin‐1‐yl)‐N‐((6‐(3‐methylmorpholino)‐2‐(1H‐pyrrolo[2,3‐b]pyridin‐4‐yl)pyrimidin‐4‐yl)methyl)benzamide] | – | > 50000 nM | 990 ± 60 nM | – |

The remaining lines, values behind:

| SMILES | IC50 [4] | IC50 [5] | inhibition at 5 µM [1] | IC50 [2] | IC50 [3] | IC50 [1] |
| --- | --- | --- | --- | --- | --- | --- |
| C[C@@H]1COCCN1c1cc(C2(N)CC2)nc(-c2ccnc3[nH]ccc23)n1 [Compound 23] | – | – | 20.5% | 40700 ± 1360 nM | > 50000 nM | – |
| C[C@@H]1COCCN1c1cc(CN)nc(-c2ccnc3[nH]ccc23)n1 [Compound 28] | – | – | 21.4% | > 50000 nM | 40800 ± 4450 nM | – |
| C[C@@H]1COCCN1c1cc(C2(NC(=O)c3cnc(N4CCN(C(=O)c5cc(Cc6n[nH]c(=O)c7ccccc67)ccc5F)CC4)nc3)CC2)nc(-c2ccnc3[nH]ccc23)n1 [Compound A12, (R)‐2‐(4‐(2‐fluoro‐5‐((4‐oxo‐3,4‐dihydrophthalazin‐1‐yl)methyl)benzoyl)piperazin‐1‐yl)‐N‐(1‐(6‐(3‐methylmorpholino)‐2‐(1H‐pyrrolo[2,3‐b]pyridin‐4‐yl)pyrimidin‐4‐yl)cyclopropyl)pyrimidine‐5‐carboxamide] | 1.7 ± 0.2 nM | 105 ± 7.2 nM | – | > 50000 nM | 240 ± 10 nM | – |
| C[C@@H]1COCCN1c1cc(CNC(=O)CCNC(=O)c2cc(Cc3n[nH]c(=O)c4ccccc34)ccc2F)nc(-c2ccnc3[nH]ccc23)n1 [Compound B3, (R)‐2‐fluoro‐N‐(3‐(((6‐(3‐methylmorpholino)‐2‐(1H‐pyrrolo[2,3‐b]pyridin‐4‐yl)pyrimidin‐4‐yl)methyl)amino)‐3‐oxopropyl)‐5‐((4‐oxo‐3,4‐dihydrophthalazin‐1‐yl)methyl)benzamide] | 9.5 ± 1.8 nM | 347 ± 15.7 nM | 34.9% | 14300 ± 1400 nM | 17700 ± 530 nM | – |
| C[C@@H]1COCCN1c1cc(CNS(=O)(=O)c2ccc(C(=O)N3CCN(C(=O)c4cc(Cc5n[nH]c(=O)c6ccccc56)ccc4F)CC3)cc2)nc(-c2ccnc3[nH]ccc23)n1 [Compound B9, (R)‐4‐(4‐(2‐fluoro‐5‐((4‐oxo‐3,4‐dihydrophthalazin‐1‐yl)methyl)benzoyl)piperazine‐1‐carbonyl)‐N‐((6‐(3‐methylmorpholino)‐2‐(1H‐pyrrolo[2,3‐b]pyridin‐4‐yl)pyrimidin‐4‐yl)methyl) benzenesulfonamide] | 0.64 ± 0.21 nM | 205 ± 13.1 nM | – | > 50000 nM | 6880 ± 630 nM | – |
| C[C@@H]1COCCN1c1cc(CNC(=O)c2ccc(C(=O)N3CCN(C(=O)c4cc(Cc5n[nH]c(=O)c6ccccc56)ccc4F)CC3)cn2)nc(-c2ccnc3[nH]ccc23)n1 [Compound B11, (R)‐5‐(4‐(2‐fluoro‐5‐((4‐oxo‐3,4‐dihydrophthalazin‐1‐yl)methyl)benzoyl)piperazine‐1‐carbonyl)‐N‐((6‐(3‐methylmorpholino)‐2‐(1H‐pyrrolo[2,3‐b]pyridin‐4‐yl)pyrimidin‐4‐yl)methyl) picolinamide] | 1 ± 0.13 nM | 31.1 ± 4.7 nM | – | > 50000 nM | 480 ± 30 nM | – |
| C[C@@H]1COCCN1c1cc(CNC(=O)c2ccc(CN3CCN(C(=O)c4cc(Cc5n[nH]c(=O)c6ccccc56)ccc4F)CC3)cc2)nc(-c2ccnc3[nH]ccc23)n1 [Compound B12, (R)‐4‐((4‐(2‐fluoro‐5‐((4‐oxo‐3,4‐dihydrophthalazin‐1‐yl)methyl)benzoyl)piperazin‐1‐yl)methyl)‐N‐((6‐(3‐methylmorpholino)‐2‐(1H‐pyrrolo[2,3‐b]pyridin‐4‐yl)pyrimidin‐4‐yl)methyl)benzamide] | 2 ± 0.3 nM | 37 ± 4.2 nM | – | > 50000 nM | 2830 ± 60 nM | – |
| C[C@@H]1COCCN1c1cc(CNC(=O)c2cnc(N3CCN(C(=O)c4cc(Cc5n[nH]c(=O)c6ccccc56)ccc4F)CC3)nc2)nc(-c2ccnc3[nH]ccc23)n1 [Compound B14, (R)‐2‐(4‐(2‐fluoro‐5‐((4‐oxo‐3,4‐dihydrophthalazin‐1‐yl)methyl)benzoyl)piperazin‐1‐yl)‐N‐((6‐(3‐methylmorpholino)‐2‐(1H‐pyrrolo[2,3‐b]pyridin‐4‐yl)pyrimidin‐4‐yl)methyl)pyramidine‐5‐carboxamide] | 1.2 ± 0.4 nM | 23 ± 2.1 nM | – | > 50000 nM | 90 ± 10 nM | – |
